# Activity calls are given as the source filed them. How the calls were made is not given here.
# Test system: rodent carcinogenicity bioassays, tumor incidence
# Experiment: CCRIS carcinogenicity studies
# Details: Dose: 0, Dose: 0
# Summary of the method: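 NCI-built, expert-reviewed records of carcinogenicity and related test outcomes (mutagenicity, tumor promotion/inhibition) compiled from published and report sources, historical span 1985-2011, not updated.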
structure (smiles),measurement,setting,value
O[C@@H]1[C@@H](O)[C@@H](O)OC[C@H]1O,carcinogen call,"Species: RAT, Strain/Sex: F344/FEMALE, Route: ORAL (DIET), 2.5%, 5% FOR 104 WKS (STUDY DURATION: 104 WKS), 2.5%, 5% FOR 104 WKS (STUDY DURATION: 104 WKS)",inactive; negative
same,carcinogen call,"Species: RAT, Strain/Sex: F344/MALE, Route: ORAL (DIET), 2.5%, 5% FOR 104 WKS (STUDY DURATION: 104 WKS), 2.5%, 5% FOR 104 WKS (STUDY DURATION: 104 WKS)",inactive; negative
Cc1cc(O)c2c(c1)C(=O)c1cc(O)cc(O)c1C2=O,carcinogen call,"Species: MOUSE, Strain/Sex: B6C3F1/FEMALE, Route: ORAL, 312, 625, 1250 PPM IN DIET FOR 105 WK (STUDY DURATION: 105 WK), 312, 625, 1250 PPM IN DIET FOR 105 WK (STUDY DURATION: 105 WK)",inactive; negative
same,carcinogen call,"Species: MOUSE, Strain/Sex: B6C3F1/MALE, Route: ORAL, 160, 312, 625 PPM IN DIET FOR 105 WK (STUDY DURATION: 105 WK), 160, 312, 625 PPM IN DIET FOR 105 WK (STUDY DURATION: 105 WK), Tumor Site: Type of Lesion: KIDNEY: RENAL TUBULE ADENOMA, RENAL TUBULE CARCINOMA, RENAL TUBULE ADENOMA OR CARCINOMA",equivocal
same,carcinogen call,"Species: RAT, Strain/Sex: F344/FEMALE, Route: ORAL, 280, 830, 2500 PPM IN DIET FOR 105 WK (STUDY DURATION: 105 WK), 280, 830, 2500 PPM IN DIET FOR 105 WK (STUDY DURATION: 105 WK), Tumor Site: Type of Lesion: ZYMBAL GLAND: CARCINOMA",equivocal
same,carcinogen call,"Species: RAT, Strain/Sex: F344/MALE, Route: ORAL, 280, 830, 2500 PPM IN DIET FOR 105 WK (STUDY DURATION: 105 WK), 280, 830, 2500 PPM IN DIET FOR 105 WK (STUDY DURATION: 105 WK)",inactive; negative
Clc1ccc(Cl)c(-c2cc(Cl)ccc2Cl)c1,carcinogen call,"Species: MOUSE, Strain/Sex: STRAIN-A/FEMALE, Route: INTRAPERITONEAL, 0.1, 0.2 UMOL/UL OF DMSO 5, 10 AND 20 µL GIVEN ON DAYS 4, 8 AND 15 AFTER BIRTH, RESPECTIVELY (STUDY DURATION: 28 WK), 0.1, 0.2 UMOL/UL OF DMSO 5, 10 AND 20 µL GIVEN ON DAYS 4, 8 AND 15 AFTER BIRTH, RESPECTIVELY (STUDY DURATION: 28 WK)",inactive; negative
same,carcinogen call,"Species: MOUSE, Strain/Sex: STRAIN-A/MALE, Route: INTRAPERITONEAL, 0.1, 0.2 UMOL/UL OF DMSO 5, 10 AND 20 µL GIVEN ON DAYS 4, 8 AND 15 AFTER BIRTH, RESPECTIVELY (STUDY DURATION: 28 WK), 0.1, 0.2 UMOL/UL OF DMSO 5, 10 AND 20 µL GIVEN ON DAYS 4, 8 AND 15 AFTER BIRTH, RESPECTIVELY (STUDY DURATION: 28 WK)",inactive; negative
Cc1cc(Cl)ccc1OC(C)C(=O)O (stereo not given),carcinogen call,"Species: Mouse, Strain/Sex: B6C3F1/CrlBR/Female (50/Group), Route: Oral, 25, 250 ppm of 92.7% mecoprop in diet for 18 mo, study duration 18 mo, 25, 250 ppm of 92.7% mecoprop in diet for 18 mo, study duration 18 mo",inactive; negative
same,carcinogen call,"Species: Mouse, Strain/Sex: B6C3F1/CrlBR/Male (50/Group), Route: Oral, 25, 250 ppm of 92.7% mecoprop in diet for 18 mo, study duration 18 mo, 25, 250 ppm of 92.7% mecoprop in diet for 18 mo, study duration 18 mo, Tumor Site: Type of Lesion: Lung: carcinoma",active; positive
same,carcinogen call,"Species: Rat, Strain/Sex: Wistar/Female (65/Group), Route: Oral, 20, 100, 400 ppm of 92.7% mecoprop in diet for 24 mo, study duration 24 mo, 20, 100, 400 ppm of 92.7% mecoprop in diet for 24 mo, study duration 24 mo",inactive; negative
same,carcinogen call,"Species: Rat, Strain/Sex: Wistar/Male (65/Group), Route: Oral, 20, 100, 400 ppm of 92.7% mecoprop in diet for 24 mo, study duration 24 mo, 20, 100, 400 ppm of 92.7% mecoprop in diet for 24 mo, study duration 24 mo",inactive; negative
C/C=C/C=O,carcinogen call,"Species: MOUSE, Strain/Sex: B6C3F1/FEMALE, Route: INTRAPERITONEAL, 1500 NMOL TOTAL DOSE, 1/3 AND 2/3 OF THE TOTAL DOSE ADMINISTERED AT 8 AND 15 DAYS OF AGE RESPECTIVELY, ANIMALS TERMIN",inactive; negative
same,carcinogen call,"Species: MOUSE, Strain/Sex: B6C3F1/FEMALE, Route: INTRAPERITONEAL, 3000 NMOL TOTAL DOSE, 1/3 AND 2/3 OF THE TOTAL DOSE ADMINISTERED AT 8 AND 15 DAYS OF AGE RESPECTIVELY, ANIMALS TERMIN",inactive; negative
same,carcinogen call,"Species: MOUSE, Strain/Sex: B6C3F1/MALE, Route: INTRAPERITONEAL, 1500 NMOL TOTAL DOSE, 1/3 AND 2/3 OF THE TOTAL DOSE ADMINISTERED AT 8 AND 15 DAYS OF AGE RESPECTIVELY, ANIMALS TERMIN",inactive; negative
same,carcinogen call,"Species: MOUSE, Strain/Sex: B6C3F1/MALE, Route: INTRAPERITONEAL, 3000 NMOL TOTAL DOSE, 1/3 AND 2/3 OF THE TOTAL DOSE ADMINISTERED AT 8 AND 15 DAYS OF AGE RESPECTIVELY, ANIMALS TERMIN",inactive; negative
NC(=O)c1cnccn1,carcinogen call,"Species: MOUSE, Strain/Sex: B6C3F1/MALE, Route: ORAL, 5000, 10000 PPM IN DIET, 5000, 10000 PPM IN DIET",inactive; negative
same,carcinogen call,"Species: RAT, Strain/Sex: F344/FEMALE, Route: ORAL, 5000, 10000 PPM IN DIET, 5000, 10000 PPM IN DIET",inactive; negative
same,carcinogen call,"Species: RAT, Strain/Sex: F344/MALE, Route: ORAL, 5000, 10000 PPM IN DIET, 5000, 10000 PPM IN DIET",inactive; negative
C[C@@H]1CCC[C@H](C)N1CCC[C@@](O)(c1ccccc1)c1ccccn1,carcinogen call,"Species: MOUSE, Strain/Sex: B6C3F1/FEMALE, Route: ORAL, 10, 25, 50 MG/KG/D IN DIET FOR 104 WK (STUDY DURATION: 104 WK), 10, 25, 50 MG/KG/D IN DIET FOR 104 WK (STUDY DURATION: 104 WK)",inactive; negative
same,carcinogen call,"Species: MOUSE, Strain/Sex: B6C3F1/MALE, Route: ORAL, 10, 25, 50 MG/KG/D IN DIET FOR 104 WK (STUDY DURATION: 104 WK), 10, 25, 50 MG/KG/D IN DIET FOR 104 WK (STUDY DURATION: 104 WK)",inactive; negative
same,carcinogen call,"Species: RAT, Strain/Sex: WISTAR/FEMALE, Route: ORAL, 10, 25, 50 MG/KG/D IN DIET FOR 104 WK (STUDY DURATION: 104 WK), 10, 25, 50 MG/KG/D IN DIET FOR 104 WK (STUDY DURATION: 104 WK)",inactive; negative
same,carcinogen call,"Species: RAT, Strain/Sex: WISTAR/MALE, Route: ORAL, 10, 25, 50 MG/KG/D IN DIET FOR 104 WK (STUDY DURATION: 104 WK), 10, 25, 50 MG/KG/D IN DIET FOR 104 WK (STUDY DURATION: 104 WK)",inactive; negative
Cc1cc2c3c(cccc3c1)-c1ccccc1-2,carcinogen call,"Species: MOUSE, Strain/Sex: CD-1/FEMALE, Route: INTRAPERITONEAL, 3.46, 17.3 UMOL (TOTAL DOSE) IN DMSO ADMINISTERED ON DAYS 1,8, AND 15 OF LIFE (STUDY DURATION: 52 WK), 3.46, 17.3 UMOL (TOTAL DOSE) IN DMSO ADMINISTERED ON DAYS 1,8, AND 15 OF LIFE (STUDY DURATION: 52 WK), Tumor Site: Type of Lesion: LUNG: TUMORS, LIVER: TUMORS",active; positive
same,carcinogen call,"Species: MOUSE, Strain/Sex: CD-1/MALE, Route: INTRAPERITONEAL, 3.46, 17.3 UMOL (TOTAL DOSE) IN DMSO ADMINISTERED ON DAYS 1,8, AND 15 OF LIFE (STUDY DURATION: 52 WK), 3.46, 17.3 UMOL (TOTAL DOSE) IN DMSO ADMINISTERED ON DAYS 1,8, AND 15 OF LIFE (STUDY DURATION: 52 WK), Tumor Site: Type of Lesion: LUNG: TUMORS, LIVER: TUMORS",active; positive
